Values quoted from earlier work, collected in US20120128730A1, “COMPOSITIONS AND METHODS FOR ONCE-DAILY TREATMENT OF OBSESSIVE COMPULSIVE DISORDER WITH ONDANSETRON” (priority 2010, published 2012).

Tested on: mesenteric bed or the nerves in the heart
Conditions: animal studies

Cc1nccn1CC1CCc2c(c3ccccc3n2C)C1=O (stereo not shown) [ondansetron]
effect on the mesenteric bed or the nerves in the heart: did not appear to have effect
